Experimental data reported in patent US20040214848A1, “Inhibitors of ABC drug transporters in microbial cells” (priority 2001, published 2004).
Where two headings read alike, the source gives them in different places.

How the values were obtained:
[1] = test system: CLA (control) Monolayer, LLC-PK1 cells; conditions: pig, 120 min, 10 µM, pH 7.2
[2] = biological target: human PGP membranes (PGP-ATPase) (Homo sapiens, UniProt P08183)
Method: The DMSO concentration (1.0%) was constant for all conditions within the experiment.
The test substances were incubated in the PGP membranes and supplemented with MgATP, with and without sodium orthovanadate present. Orthovanadate inhibits PGP by trapping MgADP in the nucleotide binding site. Thus, the ATPase activity measured in the presence of orthovanadate represents non-PGP ATPase activity and was subtracted from the activity generated without orthovanadate to yield vanadate-sensitive ATPase activity.
(§1) ATPase assays were conducted in 96-well microtiter plates. A 0.06 mL reaction mixture containing 40 μg PGP membranes, test substance, and 4 mM MgATP, in buffer containing 50 mM Tris-MES, 2 mM EGTA, 50 mM KCl, 2 mM dithiothreitol, and 5 mM sodium azide, plus organic solvent was incubated at 37° C. for 20 minutes. […] Identical reaction mixtures containing 100 μM sodium orthovanadate were assayed in parallel. The reactions were stopped by the addition of 30 μl of 10% SDS+Antifoam A. The incubations were followed with addition of 200 μl of 35 mM Ammonium Molybdate in 15 mM Zinc Acetate:10% Ascorbic Acid (1:4) and incubated for an additional 20 minutes at 37° C. Additionally, 0.06 mL aliquots of potassium phosphate standards prepared in the buffer described above, were incubated in the plates containing the test and control substances, with SDS and detection reagent added. The liberation of inorganic phosphate was detected by its absorbance at 800 nm and quantitated by comparing the absorbance to a phosphate standard curve. The concentration dependence of the PGP was analyzed for evidence of saturation of PGP-ATPase activity, and apparent kinetic parameters were calculated by non-linear regression.
as §1, with “plates.” for “plates. A 0.06 mL reaction mixture containing 40 μg PGP membranes, test substance, and 4 mM MgATP, in buffer containing 50 mM Tris-MES, 2 mM EGTA, 50 mM KCl, 2 mM dithiothreitol, and 5 mM sodium azide, plus organic solvent was incubated at 37° C. for 20 minutes.”, “PGP-associated ATPase” for “PGP-ATPase”
as §1, with “The effect of tobramycin on PGP-associated ATPase activity was also assayed. The tobramycin was incubated in human PGP membranes (BD Biosciences, Franklin Lakes, N.J., Gentest Cat. K228) and supplemented with MGATP, with and without sodium orthovanadate present. ATPase” for “ATPase”, “tobramycin,” for “test substance,”, “solvent (1% DMSO)” for “solvent”, “curve.” for “curve. The concentration dependence of the PGP was analyzed for evidence of saturation of PGP-ATPase activity, and apparent kinetic parameters were calculated by non-linear regression.”

[3] = test system: Plasmodium falciparum strains; conditions: more rapidly; cited from earlier work
[4] = biological target: T1, human PGP (Homo sapiens, UniProt P08183); experiment: Inhibition of PGP-mediated [3H]-digoxin transport in human PGP-expressing LLC-PK1 (15B-J) cell monolayers; conditions: for Concentrations at which inhibitory behavior was exhibited: pH 7.2
T1 sequence (P08183 whole entry): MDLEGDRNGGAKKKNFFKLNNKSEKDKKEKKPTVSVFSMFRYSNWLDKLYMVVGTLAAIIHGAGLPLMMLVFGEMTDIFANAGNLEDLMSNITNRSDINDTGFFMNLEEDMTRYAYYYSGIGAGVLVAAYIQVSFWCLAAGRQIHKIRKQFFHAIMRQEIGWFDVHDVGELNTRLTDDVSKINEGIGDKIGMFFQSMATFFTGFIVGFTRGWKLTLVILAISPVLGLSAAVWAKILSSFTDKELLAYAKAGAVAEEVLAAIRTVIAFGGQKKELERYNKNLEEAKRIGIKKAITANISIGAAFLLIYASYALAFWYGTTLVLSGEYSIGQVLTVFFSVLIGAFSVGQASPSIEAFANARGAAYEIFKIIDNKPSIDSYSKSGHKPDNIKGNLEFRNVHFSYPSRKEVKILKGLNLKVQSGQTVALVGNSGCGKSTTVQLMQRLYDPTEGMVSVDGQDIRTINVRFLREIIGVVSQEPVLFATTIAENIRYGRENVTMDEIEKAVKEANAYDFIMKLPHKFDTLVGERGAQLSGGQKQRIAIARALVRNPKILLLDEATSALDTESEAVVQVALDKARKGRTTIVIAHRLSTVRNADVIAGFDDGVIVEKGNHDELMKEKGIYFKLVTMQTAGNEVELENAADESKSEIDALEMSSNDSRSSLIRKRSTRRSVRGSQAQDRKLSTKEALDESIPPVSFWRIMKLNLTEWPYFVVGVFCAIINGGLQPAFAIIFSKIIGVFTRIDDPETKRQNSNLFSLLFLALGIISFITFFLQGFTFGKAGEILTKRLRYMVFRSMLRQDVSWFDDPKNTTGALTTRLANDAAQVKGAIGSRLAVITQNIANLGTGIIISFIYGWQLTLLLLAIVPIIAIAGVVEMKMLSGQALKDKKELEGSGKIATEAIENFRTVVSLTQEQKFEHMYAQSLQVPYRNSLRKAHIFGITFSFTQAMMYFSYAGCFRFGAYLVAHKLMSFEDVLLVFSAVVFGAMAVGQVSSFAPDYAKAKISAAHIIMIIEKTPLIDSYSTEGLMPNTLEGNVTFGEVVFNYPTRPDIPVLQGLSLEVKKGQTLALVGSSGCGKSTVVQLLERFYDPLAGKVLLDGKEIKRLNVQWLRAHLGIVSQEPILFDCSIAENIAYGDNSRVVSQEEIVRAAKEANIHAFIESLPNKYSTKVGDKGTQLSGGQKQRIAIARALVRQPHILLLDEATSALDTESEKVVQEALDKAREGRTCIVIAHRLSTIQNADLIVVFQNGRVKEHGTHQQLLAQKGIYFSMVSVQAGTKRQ

[5] = biological target: T1, human PGP

Sequence of human PGP membranes (PGP-ATPase) (P08183 whole entry): as above

CC[C@H]1OC(=O)[C@H](C)[C@@H](O[C@H]2C[C@@](C)(OC)[C@@H](O)[C@H](C)O2)[C@H](C)[C@@H](O[C@@H]2O[C@H](C)C[C@H](N(C)C)[C@H]2O)[C@](C)(O)C[C@@H](C)C(=O)[C@H](C)[C@@H](O)[C@]1(C)O [Erythromycin, erythromycin]
pmoles in Receiver [1]: 6.3 pmol
Effect on PGP-associated ATPase activity (result in words) [2]: stimulate PGP-associated ATPase activity
ATPase Activity ([2]; human, 20 min, 0.1 μM): 1.1 nmol/mg/min
ATPase Activity ([2]; human, 20 min, 0.2 µM): 2.0 nmol/mg/min
ATPase Activity ([2]; human, 20 min, 0.4 µM): 0.8 nmol/mg/min
ATPase Activity ([2]; human, 20 min, 0.8 µM): 0.1 nmol/mg/min
ATPase Activity ([2]; human, 20 min, 3.13 µM): 0.5 nmol/mg/min
ATPase Activity ([2]; human, 20 min, 6.25 µM): 0.6 nmol/mg/min
ATPase Activity ([2]; human, 20 min, 12.5 µM): 2.8 nmol/mg/min
ATPase Activity ([2]; human, 20 min, 25 µM): 8.2 nmol/mg/min
ATPase Activity ([2]; human, 20 min, 50 µM): 14.0 nmol/mg/min
ATPase Activity ([2]; human, 20 min, 100 μM): 15.6 nmol/mg/min

NC[C@H]1O[C@H](O[C@H]2[C@H](O)[C@@H](O[C@H]3O[C@H](CO)[C@@H](O)[C@H](N)[C@H]3O)[C@H](N)C[C@@H]2N)[C@H](N)C[C@@H]1O [Tobramycin, tobramycin]
Effect on PGP-associated ATPase activity (result in words) [2]: stimulate PGP-associated ATPase activity
ATPase Activity ([2]; human, 20 min, 0.1 μM): -1.6 nmol/mg/min
ATPase Activity ([2]; human, 20 min, 0.2 µM): -2.6 nmol/mg/min
ATPase Activity ([2]; human, 20 min, 0.4 µM): -2.6 nmol/mg/min
ATPase Activity ([2]; human, 20 min, 0.8 µM): -3.3 nmol/mg/min
ATPase Activity ([2]; human, 20 min, 3.13 µM): -2.6 nmol/mg/min
ATPase Activity ([2]; human, 20 min, 6.25 µM): -1.4 nmol/mg/min
ATPase Activity ([2]; human, 20 min, 12.5 µM): -1.0 nmol/mg/min
ATPase Activity ([2]; human, 20 min, 25 µM): 0.2 nmol/mg/min
ATPase Activity ([2]; human, 20 min, 50 µM): 0.3 nmol/mg/min
ATPase Activity ([2]; human, 20 min, 100 μM): 1.5 nmol/mg/min

CCN(CC)CCCC(C)Nc1ccnc2cc(Cl)ccc12 (stereo not drawn) [chloroquine]
Efflux of the drug, chloroquine-resistant versus chloroquine-sensitive strains [3]: 40-50 times

C=C1CC[C@@]2(O)[C@H]3Cc4ccc(O)c5c4[C@@]2(CCN3CC2CC2)[C@H]1O5 [Nalmefene, nalmefene]
Concentration dependence of inhibition of digoxin transport (result in words) [4]: increasingly inhibited in response to increasing concentration
Efflux ratio B→A/A→B, Hi Affinity/Low Cap ([4]; human, LLC-PK1, pH 7.2): 4.2 (3.0)
Efflux ratio B→A/A→B, Low Affinity/Hi Cap ([4]; human, LLC-PK1, pH 7.2): 2.6 (1.9)
Concentrations at which inhibitory behavior was exhibited ([4]; human): 100 to 100000 nM
Effect on PGP-associated ATPase activity (result in words) ([2]; semi-quantitative assay): not to limit the ATPase activity

O=C1CC[C@@]2(O)[C@H]3Cc4ccc(O)c5c4[C@@]2(CCN3CC2CC2)[C@H]1O5 [Naltrexone, naltrexone]
ATPase Activity ([2]; 0.003 μM test substance): -0.3 nmol/mg/min
ATPase Activity ([2]; 0.01 μM test substance): 0.0 nmol/mg/min
ATPase Activity ([2]; 0.03 μM test substance): -1.6 nmol/mg/min
ATPase Activity ([2]; 0.1 μM test substance): -0.7 nmol/mg/min
ATPase Activity ([2]; 0.3 μM test substance): -1.4 nmol/mg/min
ATPase Activity ([2]; 1.0 μM test substance): -0.8 nmol/mg/min
ATPase Activity ([2]; 3.0 μM test substance): 2.1 nmol/mg/min
ATPase Activity ([2]; 10 μM test substance): 2.0 nmol/mg/min
ATPase Activity ([2]; 30 μM test substance): -2.0 nmol/mg/min
ATPase Activity ([2]; 100 μM test substance): 4.6 nmol/mg/min

Oc1ccc2c3c1O[C@H]1[C@H](O)CC[C@@]4(O)[C@@H](C2)N(CC2CC2)CC[C@]314 [6-β-Naltrexol, 6-β-naltrexol]
Concentration dependence of inhibition of digoxin transport (result in words) [5]: did not appear to be concentration-dependent
Inhibition of digoxin efflux, mean ([4]; concentration range of 0.0001 to 30 μM): 8.5 +/−7.1%
Inhibition of PGP-mediated digoxin transport (result in words) ([4]; ketoconazole at 25 μM, test substance over the concentration range tested): inhibitor of PGP-mediated digoxin transport

C=CCN1CC[C@]23c4c5ccc(O)c4O[C@H]2C(=O)CC[C@@]3(O)[C@H]1C5 [Naloxone, naloxone]
Concentration dependence of inhibition of digoxin transport (result in words) [4]: not concentration-dependent
Concentrations at which inhibitory behavior was exhibited ([4]; human): 100 to 100000 nM
Effect on PGP-associated ATPase activity (result in words) ([2]; semi-quantitative assay): not to limit the ATPase activity
